Structures can show the parent of a compound that is named as a salt.
test system: progranulin (PGRN); assay: progranulin induction cellular assay (PGRN assay), ELISA-based readout; settings: PGRN assay as described: mouse primary microglia, primary cortical neurons and BV-2 cell lines; secreted mouse PGRN in medium by ELISA; cell type for Table B not specified
Method: Cellular Assays: To measure the efficacy of compounds, a progranulin induction cellular assay in mouse primary microglia (pMG), primary cortical neurons, and BV-2 cell lines is used. BV-2 cells are split the day before plating into a 96 well plate format at approximately 80%. Cells should be plated the day before and allowed for 1 hour attachment period and for 16 hour incubation. Levels of progranulin secreted into the cell culture medium or retained in the cell lysate can be quantified using an ELISA-based readout and measurement of secreted mouse PGRN in the medium was assessed by the methodology published by Ghidoni et al. 2012. Standard ELISA kits to measure PGRN are available from vendors such as Adipogen, R&D, and Biovendor.
Table B below presents the results of a PGRN assay as described above.

SMILES	EC50
N[C@H]1CC[C@H](C(=O)N2CCc3ccccc3[C@@H]2c2ccc(F)cc2)CC1 [Compound 4144]	3120 nM
NC12CC(NC(=O)N3CCc4ccccc4[C@@H]3c3ccccc3)(C1)C2 [Compound 4135, (S)—N-(3-aminobicyclo[1.1.1]pentan-1-yl)-1-phenyl-3,4-dihydroisoquinoline-2(1H)-carboxamide]	1610 nM
O=C(NC12CC(N3CCS(=O)(=O)CC3)(C1)C2)N1CCc2ccccc2[C@@H]1c1ccc(F)cc1 [Compound 4021, (S)—N-(3-(1,1-dioxidothiomorpholino)bicyclo[1.1.1]pentan-1-yl)-1-(4-fluorophenyl)-3,4-dihydroisoquinoline-2(1H)-carboxamide]	> 10000 nM
NC12CC(OC(=O)N3CCc4ccccc4[C@@H]3c3ccc(F)cc3)(C1)C2 [Compound 4001, 3-Aminobicyclo[1.1.1]pentan-1-yl (S)-1-(4-fluorophenyl)-3,4-dihydroisoquinoline-2(1H)-carboxylate]	440 nM
N[C@H]1CC[C@H]1COC(=O)N1CCc2ccccc2[C@@H]1c1ccc(F)cc1 [Compound 4133, ((1R,2S)-2-aminocyclobutyl)methyl (S)-1-(4-fluorophenyl)-3,4-dihydroisoquinoline-2(1H)-carboxylate]	864 nM
NC[C@H]1CC[C@H]1OC(=O)N1CCc2ccccc2[C@@H]1c1ccc(F)cc1 [Compound 4065]	821 nM
CS(=O)(=O)NC12CC(OC(=O)N3CCc4ccccc4[C@@H]3c3ccc(F)cc3)(C1)C2 [Compound 4018, 3-(Methylsulfonamido)bicyclo[1.1.1]pentan-1-yl (S)-1-(4-fluorophenyl)-3,4-dihydroisoquinoline-2(1H)-carboxylate]	> 10000 nM
NC12CC(NC(=O)N3CCc4ccccc4[C@@H]3c3ccc(F)cc3)(C1)C2 [Compound 4002, (S)—N-(3-aminobicyclo[1.1.1]pentan-1-yl)-1-(4-fluorophenyl)-3,4-dihydroisoquinoline-2(1H)-carboxamide]	266 nM

Now from value to compound:

EC50	SMILES
290 nM	CN(C)[C@H]1C[C@@H](NC(=O)N2CCc3ccccc3[C@@H]2c2ccc(F)cc2)C1 [Compound 4068]
1690 nM	N[C@@H]1CC[C@@H]1OC(=O)N1CCc2ccccc2[C@@H]1c1ccc(F)cc1 (single isomer, unassigned) [Compound 4038]
1120 nM	N[C@H]1C[C@H](OC(=O)N2CCc3ccccc3[C@@H]2c2ccc(F)cc2)C1 [Compound 4036, Trans-3-aminocyclobutyl (S)-1-(4-fluorophenyl)-3,4-dihydroisoquinoline-2(1H)-carboxylate hydrochloride]
2330 nM	N[C@H]1CCC1OC(=O)N1CCc2ccccc2[C@@H]1c1ccc(F)cc1 (single isomer, unassigned) [Compound 4040, hydrochloride]
> 10000 nM	CNC12CC(N(C)C(=O)N3CCc4ccccc4[C@@H]3c3ccc(F)cc3)(C1)C2 [Compound 4009, (S)-1-(4-fluorophenyl)-N-methyl-N-(3-(methylamino)bicyclo[1.1.1]pentan-1-yl)-3,4-dihydroisoquinoline-2(1H)-carboxamide]
79 nM	NC[C@H]1C[C@@H](C(=O)N2CCc3ccccc3[C@@H]2c2ccc(F)cc2)C1 [Compound 4150, (cis-3-(aminomethyl)cyclobutyl)((S)-1-(4-fluorophenyl)-3,4-dihydroisoquinolin-2(1H)-yl)methanone]
9640 nM	NC[C@H]1C[C@@H](OC(=O)N2CCc3ccccc3[C@@H]2c2ccc(F)cc2)C1 [Compound 4030, Cis-3-(aminomethyl)cyclobutyl (S)-1-(4-fluorophenyl)-3,4-dihydroisoquinoline-2(1H)-carboxylate]
571 nM	CN(C)[C@H]1C[C@@H](CC(=O)N2CCc3ccccc3[C@@H]2c2ccc(F)cc2)C1 [Compound 4126]
600 nM	CN[C@H]1C[C@@H](NC(=O)N2CCc3ccccc3[C@@H]2c2ccc(F)cc2)C1 [Compound 4045, (S)-1-(4-fluorophenyl)-N-(cis-3-(methylamino)cyclobutyl)-3,4-dihydroisoquinoline-2(1H)-carboxamide hydrochloride]
